Drawing on ChEMBL document CHEMBL5584248, “Synthesis and biological characterization of an orally bioavailable lactate dehydrogenase-A inhibitor against pancreatic cancer” (Eur J Med Chem, 2024), this text covers IC50 for ten compounds.

Data set [1] deals with L-lactate dehydrogenase B chain (Homo sapiens, UniProt P07195). Description: Inhibition of human LDH-B incubated for 10 mins in presence of […] by fluorescence based reader assay.
The target in data set [2] is L-lactate dehydrogenase A chain (Homo sapiens, UniProt P00338). As to the kind of experiment: Inhibition of human LDH-A incubated for 10 mins in presence of […] by fluorescence based reader assay.
Data set [3] relates to MIA PaCa-2. As to the kind of experiment: Antiproliferative activity against human MIA PaCa-2 cells incubated for 48 hrs by Hoechst 33342 and SYTOX green staining based confocal imaging analysis. The format is functional, cell-based. The note with it: MIA PaCa-2, 48 h.
Data set [4] deals with PANC-1. Description: Antiproliferative activity against human PANC-1 cells incubated for 48 hrs by Hoechst 33342 and SYTOX green staining based confocal imaging analysis. The format is functional, cell-based. The conditions noted are these: PANC-1, 48 h.
Data set [5] can be described thus: Cytotoxicity against HPNEs incubated for 48 hrs by Hoechst 33342 and SYTOX green staining based confocal imaging analysis. The format is toxicity, cell-based. The note with it: human, HPNE cells.
The nature of data set [6]: Antiproliferative activity against mouse FC-1199 cells incubated for 48 hrs by Hoechst 33342 and SYTOX green staining based confocal imaging analysis. The format is functional, cell-based. The note with it: FC-1199, 48 h.

Chain of L-lactate dehydrogenase B chain (P07195 whole entry): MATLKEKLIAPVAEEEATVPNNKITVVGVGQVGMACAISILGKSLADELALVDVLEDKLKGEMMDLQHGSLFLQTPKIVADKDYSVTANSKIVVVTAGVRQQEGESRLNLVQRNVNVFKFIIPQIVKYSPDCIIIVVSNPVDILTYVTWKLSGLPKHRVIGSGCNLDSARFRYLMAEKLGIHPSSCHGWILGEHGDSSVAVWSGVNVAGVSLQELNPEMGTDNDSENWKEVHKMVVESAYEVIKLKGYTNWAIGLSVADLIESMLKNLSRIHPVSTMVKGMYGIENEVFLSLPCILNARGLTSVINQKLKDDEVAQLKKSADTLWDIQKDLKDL

For orientation: IC50 means the point on the concentration scale where inhibition reaches its midpoint. As for `O=C(O)CC(NC(=O)CCc1ccccc1)c1cccc(Cl)c1` (stereo unspecified), the IC50 in data set [1] and in data set [2] was greater than 100 µM throughout.
As for `O=C(O)CC(NC(=O)c1ccccc1Cl)c1cccc(Cl)c1` (stereo unspecified), the IC50 in data set [1] and in data set [2] was greater than 100 µM each time.
For `Cn1ccnc1C(=O)c1ccc(NC(=O)CC(C(=O)O)c2ccc(Cl)cc2)cc1` (stereo unspecified), in data set [2], the IC50 is 0.19 µM.
In the case of `O=C(O)CC(NC(=O)Cc1ccc(C(F)(F)F)cc1)c1cccc(Cl)c1` (stereo unspecified), the IC50 in data set [1] and in data set [2] was greater than 100 µM in each case.
With `COC(=O)C(CC(=O)Nc1ccc(C(=O)c2nccn2C)cc1)c1ccc(Cl)cc1` (stereo unspecified), the half-inhibitory concentration (IC50) in data set [3] is 24.2 µM; in data set [4], greater than 50 µM; in data set [6], 23.4 µM. In data set [5], this compound showed a half-inhibitory concentration (IC50) at 48 h of 26.5 µM.
Consider `COC(=O)C(CC(=O)Nc1ccc(C(=O)c2nccn2C)cc1)c1ccc(OC)cc1` (stereo unspecified), for which the IC50 in data set [2] came out at 50 µM.
In the case of `COC(=O)C(CC(=O)Nc1ccc(C(=O)c2ccccc2)cc1)c1ccc(C(F)(F)F)cc1` (stereo unspecified), the IC50 in data set [2] was 15.7 µM.
Take `O=C(CC(C(=O)O)c1ccc(C(F)(F)F)cc1)Nc1ccc(C(=O)c2ccccc2)cc1` (stereo unspecified): the half-maximal inhibitory concentration (IC50) in data set [2] is 79.3 µM.
On the same count and under the same terms, the value for `COC(=O)C(CC(=O)Nc1ccc(N2CCOCC2)c(F)c1)c1ccc(C(F)(F)F)cc1` (stereo unspecified) was 71.5 µM; that for `COC(=O)C(CC(=O)Nc1ccc(N2CCN(C)CC2)cc1)c1ccc(C(F)(F)F)cc1` (stereo unspecified) was 66.4 µM.
